In brackets after ≈: the same amount, converted by molar mass. Read-outs that look alike come from different tables or passages of the source.
Legend:
[1] = tested on: all 60 Candida spp. clinical isolates; assay: Broth macrodilution MFC/MIC ratios, combined Candida isolates; type: cell-based; settings: all 60 Candida spp. clinical isolates combined
Description: (§1) TMPN was screened against yeasts by the broth macrodilution assay according to the NCCLS [7]. Yeasts were suspended and diluted as recommended to yield final inocula ranging from 0.5-2.5×10^3 cfu/ml. Tests were performed in sterile 12 by 75 mm plastic tubes containing two-fold dilutions of TMPN in 0.165 M morpholinepropanesulfonic acid buffered RPMI 1640 medium (pH 7.0). One tube was again left drug free (but contained an equivalent volume of DMSO) for a turbidity control. Tubes were incubated without agitation at the appropriate temperature (see Fungal Strains section above). MICs were determined after 72 h for Cryptococcus and after 48 h for other yeast genera. The MIC was defined as the lowest concentration of TMPN that inhibited all visible growth of the test organism (optically clear).
(§2) Minimum fungicidal concentrations (MFCs) were determined by subculturing 0.1 ml from each tube with no visible growth in the MIC broth macrodilution series onto the appropriate drug-free plates (see Fungal Strains section above).

bovine brain tubulin = tested on: T1, bovine brain tubulin; assay: Colchicine binding assay; settings: 10 min at 37° C.
T1 construct: Electrophoretically homogeneous bovine brain tubulin [12]
Description: Electrophoretically homogeneous bovine brain tubulin [12] was used in studies to evaluate the effects of TMPN on in vitro tubulin polymerization and the binding of […] (Dupont-NEN) to tubulin. These studies were performed as described previously. In the polymerization assay, varying drug concentrations were added to 1 mg/ml tubulin to determine the amount of drug that would inhibit the extent of the reaction by 50% (20 min incubation at 30° C.) (IC50 value). In the colchicine binding assay, the effect of varying drug concentrations on the binding of 2 μg/ml colchicine to 100 μg/ml tubulin was measured after 10 min at 37° C. (control reaction about 50% complete).

C. tropicalis (9) = assay: Broth macrodilution MIC/MFC; type: cell-based, Candida tropicalis
Description: as §1, §2

C. neoformans ATCC 90112 = assay: Broth macrodilution MIC/MFC; type: cell-based, Cryptococcus neoformans; settings: for MFC / MIC: Cryptococcus neoformans
Description: as §1, §2
(§3) Possible host effects were also evaluated. Broth macrodilution assays were performed with RPMI medium prepared at pH 5, pH 6, and pH 7, and in RPMI medium with and without 50% normal human serum (Lampire Biological Labs). The pH experiments were performed twice on separate days.

C. glabrata ATCC 90030 = assay: Broth macrodilution MIC/MFC; type: cell-based, Candida glabrata
Description: as §1, §2

C. glabrata ATCC 2001 = assay: Broth macrodilution MIC/MFC; type: cell-based, Candida glabrata
Description: as §1, §2

C. glabrata (8) = assay: Broth macrodilution MIC/MFC; type: cell-based, Candida glabrata
Description: as §1, §2

T. inkin (ATCC 18020) = assay: Frequency of occurrence of spontaneous mutants; type: cell-based, Trichosporon inkin; settings: four times the broth macrodilution MIC
Description: (§4) Determination of the frequency of occurrence of spontaneous mutants was performed as previously described. Overnight cultures of C neoformans (ATCC 90112), C. albicans (ATCC 90028) and Trichosporon inkin (ATCC 18020) were diluted to an OD530 nm=0.3. 0.1 ml of each preparation was spread onto SDA plates containing four or eight times the broth macrodilution MIC of TMPN. The starting inoculum for each organism was also diluted and plated onto drug-free SDA plates for determination of cfu/ml. After a 48 h incubation at the appropriate temperature (see Fungal Strains section above), the number of colonies on drug-supplemented SDA was counted. The frequency of occurrence of spontaneous mutants was calculated by dividing the number of colonies on drug-containing plates by the number of colonies in the inoculum. When no colonies were visualized on drug-containing plates, the calculation was (<) 1 colony divided by the number of colonies in the inoculum.

fungal = assay: Frequency of fungal spontaneous mutations to resistance (summary); type: cell-based; settings: summary statement
Description: as §4

[2] = tested on: murine P388 lymphocytic leukemia cell line and six human cancer cell lines; assay: Sulforhodamine B cancer cell growth inhibition (summary over lines); type: cell-based
Description: An investigation TMPN's in vitro antineoplastic activity was also conducted. This investigation included an analysis of both cell growth, and of the effects of TMPN upon tubulin. Inhibition of cancer cell growth was assessed using the Sulforhodamine B assay as previously described. Briefly, cells in 5% fetal calf serum/RPMI-1640 were inoculated into 96 well plates, incubated 24 h and 10-fold dilutions of TMPN added. After a 48 h incubation, plates were fixed with trichloroacetic acid, washed, stained with Sulforhodamine B and read with an automated microtiter plate reader.

T. inkin ATCC 18020 = assay: Broth macrodilution MIC/MFC; type: cell-based, Trichosporon inkin; settings: for MFC: Trichosporon inkin ATCC 18020; for MIC: Trichosporon inkin
Description: as §1, §2, §3

[3] = ATCC90112, Cryptococcus neoformans ATCC 90112, 20 μg/ml bovine serum albumin
[4] = ATCC90112, Cryptococcus neoformans ATCC 90112, 40 μg/ml bovine serum albumin
[5] = ATCC90112, Cryptococcus neoformans ATCC 90112, no bovine serum albumin
[6] = ATCC90112, Cryptococcus neoformans ATCC 90112, no serum
[7] = ATCC90112, pH 5, Cryptococcus neoformans ATCC 90112, pH 5
[8] = ATCC90112, pH 5, Cryptococcus neoformans ATCC 90112, pH 5, repeat experiment
[9] = ATCC90112, pH 6, Cryptococcus neoformans ATCC 90112, pH 6
[10] = ATCC90112, pH 6, Cryptococcus neoformans ATCC 90112, pH 6, repeat experiment
[11] = ATCC90112, pH 7, Cryptococcus neoformans ATCC 90112, pH 7
[12] = ATCC90112, pH 7, Cryptococcus neoformans ATCC 90112, pH 7, repeat experiment

With `COc1cc(C=C[N+](=O)[O-])cc(OC)c1OC` [TMPN, 1-(3′,4′,5′-trimethoxyphenyl)-2-nitro-ethylene] the “share of isolates with MFC/MIC ratio ≦2” value [1] was 47%, the “share of isolates with MFC/MIC ratio ≦4” value [1] was 60% and the “inhibition of [^3H]colchicine binding to tubulin” value (bovine brain tubulin; 5 μM (combretastatin A-4 1.6 μg/ml; TMPN 1.2 μg/ml)) was 13±0.5%. For the same compound, the “inhibition of [^3H]colchicine binding to tubulin” value (bovine brain tubulin; 12 μg/ml (50 uM)) was 69±0.5%, the “MIC Range” value (C. tropicalis (9)) was 32 to 64 µg/mL and the “MFC Range” value (C. neoformans ATCC 90112; C. neoformans ATCC 90112) was 4 µg/mL (≈ 16.7 µM). For the same compound, the “MIC Range” value (C. neoformans ATCC 90112; C. neoformans ATCC 90112) was 2 µg/mL (≈ 8.36 µM), the MFC (C. neoformans ATCC 90112; [3]) was 4 µg/mL (≈ 16.7 µM) and the MIC (C. neoformans ATCC 90112; [3]) was 4 µg/mL (≈ 16.7 µM). The MFC (C. neoformans ATCC 90112; [4]) was 4 µg/mL (≈ 16.7 µM), the MIC (C. neoformans ATCC 90112; [4]) was 4 µg/mL (≈ 16.7 µM) and the MIC (C. neoformans ATCC 90112; ATCC90112, Cryptococcus neoformans ATCC 90112, 50% human serum) was greater than 64 µg/mL. It also gave an MFC (C. neoformans ATCC 90112; [5]) of 4 µg/mL (≈ 16.7 µM), an MIC (C. neoformans ATCC 90112; [5]) of 2 µg/mL (≈ 8.36 µM) and an MFC (C. neoformans ATCC 90112; [6]) of 4 µg/mL (≈ 16.7 µM). It also gave an MIC (C. neoformans ATCC 90112; [6]) of 2 µg/mL (≈ 8.36 µM), an MFC (C. neoformans ATCC 90112; [7]) of 4 µg/mL (≈ 16.7 µM) and an MIC (C. neoformans ATCC 90112; [7]) of 2 µg/mL (≈ 8.36 µM). The MFC (C. neoformans ATCC 90112; [8]) was 2 µg/mL (≈ 8.36 µM), the MIC (C. neoformans ATCC 90112; [8]) was 1 µg/mL (≈ 4.18 µM) and the MFC (C. neoformans ATCC 90112; [9]) was 4 µg/mL (≈ 16.7 µM). It also gave an MIC (C. neoformans ATCC 90112; [9]) of 4 µg/mL (≈ 16.7 µM), an MFC (C. neoformans ATCC 90112; [10]) of 4 µg/mL (≈ 16.7 µM) and an MIC (C. neoformans ATCC 90112; [10]) of 4 µg/mL (≈ 16.7 µM). The MFC (C. neoformans ATCC 90112; [11]) was 4 µg/mL (≈ 16.7 µM), the MIC (C. neoformans ATCC 90112; [11]) was 2 µg/mL (≈ 8.36 µM) and the MFC (C. neoformans ATCC 90112; [12]) was 4 µg/mL (≈ 16.7 µM). For the same compound, the MIC (C. neoformans ATCC 90112; [12]) was 2 µg/mL (≈ 8.36 µM), the “MFC Range” value (C. glabrata ATCC 90030) was 16 µg/mL (≈ 66.9 µM) and the “MIC Range” value (C. glabrata ATCC 90030) was 4 µg/mL (≈ 16.7 µM). For the same compound, the “MFC Range” value (C. glabrata ATCC 2001) was 16 µg/mL (≈ 66.9 µM), the “MIC Range” value (C. glabrata ATCC 2001) was 8 µg/mL (≈ 33.4 µM) and the “MIC Range” value (C. glabrata (8)) was 8 to 32 µg/mL. For the same compound, the “frequency of occurrence of single-step resistant mutants” value (T. inkin (ATCC 18020)) was ≤ 10^−6, the “frequency of fungal spontaneous mutations to resistance” value (fungal) was < 10^−6 and the GI50 ([2]; Mus musculus, P388, murine P388 and six human cancer cell lines, read-out: GI50 values, range over cell lines) was 1 to 4 µg/mL (≈ 4.18 to 16.7 µM). The “GI50 values, range over cell lines” value ([2]; murine P388 and six human cancer cell lines) was 1.1 to 4.1 µg/mL, the MFC (T. inkin ATCC 18020; ATCC18020, pH 6, pH6, read-out: MFC) was 16 µg/mL (≈ 66.9 µM) and the MFC (T. inkin ATCC 18020; ATCC18020, pH 7, pH7, read-out: MFC) was 16 µg/mL (≈ 66.9 µM). For the same compound, the MFC (T. inkin ATCC 18020; ATCC18020, no serum, read-out: MFC) was 16 µg/mL (≈ 66.9 µM), the MFC (T. inkin ATCC 18020; ATCC18020, pH 5, read-out: MFC) was 8 µg/mL (≈ 33.4 µM) and the “MFC Range” value (T. inkin ATCC 18020; T. inkin ATCC 18020) was 16 µg/mL (≈ 66.9 µM). For the same compound, the “MIC Range” value (T. inkin ATCC 18020; T. inkin ATCC 18020) was 8 µg/mL (≈ 33.4 µM), the MFC (T. inkin ATCC 18020; pH 5, repeat experiment) was 8 µg/mL (≈ 33.4 µM) and the MFC (T. inkin ATCC 18020; pH6, repeat experiment) was 16 µg/mL (≈ 66.9 µM). The MFC (T. inkin ATCC 18020; pH7, repeat experiment) was 16 µg/mL (≈ 66.9 µM), the MIC (T. inkin ATCC 18020; ATCC18020, Trichosporon inkin ATCC 18020, 50% human serum) was greater than 64 µg/mL and the MIC (T. inkin ATCC 18020; ATCC18020, Trichosporon inkin ATCC 18020, no serum) was 8 µg/mL (≈ 33.4 µM). It also gave an MIC (T. inkin ATCC 18020; ATCC18020, pH 5, Trichosporon inkin ATCC 18020, pH 5) of 4 µg/mL (≈ 16.7 µM), an MIC (T. inkin ATCC 18020; ATCC18020, pH 5, Trichosporon inkin ATCC 18020, pH 5, repeat experiment) of 4 µg/mL (≈ 16.7 µM) and an MIC (T. inkin ATCC 18020; ATCC18020, pH 6, Trichosporon inkin ATCC 18020, pH6) of 8 µg/mL (≈ 33.4 µM). The MIC (T. inkin ATCC 18020; ATCC18020, pH 6, Trichosporon inkin ATCC 18020, pH6, repeat experiment) was 8 µg/mL (≈ 33.4 µM), the MIC (T. inkin ATCC 18020; ATCC18020, pH 7, Trichosporon inkin ATCC 18020, pH7) was 8 µg/mL (≈ 33.4 µM) and the MIC (T. inkin ATCC 18020; ATCC18020, pH 7, Trichosporon inkin ATCC 18020, pH7, repeat experiment) was 8 µg/mL (≈ 33.4 µM).

Reference: patent publication US20050014849A1, “Antifungal phenylethylene” (priority 2001, published 2005)
